Test results reported in PMC2784635 (Bioorganic & medicinal chemistry, 2008).

Test system: strobilurin resistant strain of Plasmopara viticola
Experiment: cross-resistance test on small vine plants in the glasshouse

COC(=O)CNC(=O)/C=C\C/C=C\NC(=O)/C=C(C)/C=C/[C@H](C)[C@H](OC)[C@H](C)[C@H](/C=C/c1ccccc1)OC [Compound 8, crocacin A]
cross-resistance to strobilurin resistant Plasmopara viticola: little or no cross-resistance
